A short description of test [1]: Anticancer activity against human M85 cells after 48 hrs by MTT assay. It counts as functional, cell-based.
A short description of test [2]: Ratio of compound IC50 to cisplatin IC50 for human M85 cells. The test is classed as functional.
For test [3], the system named is HeLa. Description: Ratio of compound IC50 to cisplatin IC50 for human HeLa cells. The test is classed as functional.
Test [4] can be described thus: Ratio of compound IC50 to cisplatin IC50 for human U87 cells. The test is classed as functional, U-87MG ATCC.
A short description of test [5]: Ratio of compound IC50 to (-)-gossypol IC50 for human M85 cells. It counts as functional.
The test system of test [6] is HeLa. Description: Anticancer activity against human HeLa cells after 48 hrs by MTT assay. It counts as functional, cell-based. Background: Formazan colour is commonly taken as a measure of viable cells.
Test [7] is described as follows: Anticancer activity against human U87 cells after 48 hrs by MTT assay. The test is classed as functional, cell-based, U-87MG ATCC.
Test [8] deals with HeLa. Briefly: Ratio of compound IC50 to (-)-gossypol IC50 for human HeLa cells. The test is classed as functional.
Test [9] in a line: Ratio of compound IC50 to (-)-gossypol IC50 for human U87 cells. It counts as functional, U-87MG ATCC.

Some results are limits rather than exact numbers.

A word on the IC50: it is the midpoint of a concentration-inhibition curve. Read a high IC50 as weaker potency. Regarding `Cc1cc2c(c(O)c1-c1c(C)cc3c(c1O)/C(=C/N[C@H](CO)[C@H](O)c1ccc([N+](=O)[O-])cc1)C(=O)C(O)=C3C(C)C)/C(=C/N[C@H](CO)[C@H](O)c1ccc([N+](=O)[O-])cc1)C(=O)C(O)=C2C(C)C` (stereo in doubt; 1a), the IC50 in test [1] (m85) is 19 µM; in the test on HeLa [6] (hela), 19.6 µM; in [7] (u-87mg atcc), 30.6 µM. In addition, the “Ratio IC50” value in test [2] turned out to be 1.28; with HeLa [3] it was 1.56; in test [4], 1.79; in test [5], 1.03; with HeLa [8], 1.1; in [9], 1.01.

In the case of `Cc1cc2c(c(O)c1-c1c(C)cc3c(c1O)/C(=C/N[C@H](CO)[C@H](O)c1ccc([N+](=O)[O-])cc1)C(=O)C(O)=C3C(C)C)/C(=C/N[C@H](CO)[C@H](O)c1ccc([N+](=O)[O-])cc1)C(=O)C(O)=C2C(C)C` (stereo in doubt; 1b), the IC50 is under 2.5 µM in test [1] (m85), 8.7 µM in the test with HeLa [6] (hela) and 13.3 µM in test [7] (u-87mg atcc). For the same molecule, the “Ratio IC50” value in [2] was under 0.17; in the test with HeLa [3], 0.69; in test [4], 0.78; in test [5] it was under 0.14; in the test on HeLa [8], 0.49; in test [9] it was 0.44.

On to `Cc1cc2c(c(O)c1-c1c(C)cc3c(c1O)/C(=C/N[C@H](CO)Cc1ccccc1)C(=O)C(O)=C3C(C)C)/C(=C/N[C@H](CO)Cc1ccccc1)C(=O)C(O)=C2C(C)C` (stereo in doubt; 2a), for which the IC50 in test [1] (Homo sapiens, M85, 48 h) amounted to 21.5 µM; in the test on HeLa [6] (Homo sapiens, HeLa, 48 h), 26.5 µM; in test [7] (Homo sapiens, U-87 MG, 48 h) it was 29.5 µM. The “Ratio IC50” value in test [2] is 1.44; in the test with HeLa [3], 2.1; in test [4], 1.73; in test [5], 1.17; in the test on HeLa [8], 1.49; in test [9], 0.98.

Regarding `Cc1cc2c(c(O)c1-c1c(C)cc3c(c1O)/C(=C/N[C@H](CO)Cc1ccccc1)C(=O)C(O)=C3C(C)C)/C(=C/N[C@H](CO)Cc1ccccc1)C(=O)C(O)=C2C(C)C` (stereo in doubt; 2b), the IC50 in test [1] (m85) was found to be 15.5 µM; with HeLa [6] (hela), 14.7 µM; in test [7] (u-87mg atcc) it was 29.3 µM. Also, the “Ratio IC50” value is 1.04 in test [2]; 1.17 in the test on HeLa [3]; 1.71 in [4]; 0.84 in test [5]; 0.83 in the test with HeLa [8]; 0.97 in test [9].

In the case of `Cc1cc2c(c(O)c1-c1c(C)cc3c(c1O)/C(=C/NCCc1ccccc1)C(=O)C(O)=C3C(C)C)/C(=C/NCCc1ccccc1)C(=O)C(O)=C2C(C)C` (stereo in doubt; 3a), the IC50 in [1] (Homo sapiens, M85, 48 h) was over 80 µM; in the test with HeLa [6] (Homo sapiens, HeLa, 48 h), 51.8 µM; in [7] (Homo sapiens, U-87 MG, 48 h), over 80 µM. Moreover, the entries for the “Ratio IC50” value with HeLa [3] and with HeLa [8] were 4.11 and 2.91, respectively.

Take `Cc1cc2c(c(O)c1-c1c(C)cc3c(c1O)/C(=C/NCCc1ccccc1)C(=O)C(O)=C3C(C)C)/C(=C/NCCc1ccccc1)C(=O)C(O)=C2C(C)C` (stereo in doubt; 3b): the “Ratio IC50” value stood at 3.17 in the test with HeLa [3] and 2.24 with HeLa [8]. This molecule had an IC50 in the test on HeLa [6] (hela) of 39.9 µM.

Turning to `Cc1cc2c(c(O)c1-c1c(C)cc3c(c1O)/C(=C/NCCCO)C(=O)C(O)=C3C(C)C)/C(=C/NCCCO)C(=O)C(O)=C2C(C)C` (stereo in doubt; 4a), the IC50 in [1] (m85) was 21.1 µM; in the test with HeLa [6] (Homo sapiens, HeLa, 48 h) it was 10.7 µM; in [7] (u-87mg atcc) it was 29 µM. Also, the “Ratio IC50” value in test [2] came to 1.42; with HeLa [3] it was 0.85; in [4], 1.7; in test [5], 1.15; in the test on HeLa [8], 0.6; in test [9], 0.96.

`Cc1cc2c(c(O)c1-c1c(C)cc3c(c1O)/C(=C/NCCCO)C(=O)C(O)=C3C(C)C)/C(=C/NCCCO)C(=O)C(O)=C2C(C)C` (stereo in doubt; 4b): the concentration for half-maximal inhibition (IC50) in test [1] (m85) was determined as 5.4 µM; in the test on HeLa [6] (hela), 12.5 µM; in test [7] (u-87mg atcc), 12.1 µM. Besides, the “Ratio IC50” value in test [2] amounted to 0.36; in the test with HeLa [3], 0.99; in test [4] it was 0.71; in [5] it was 0.29; in the test with HeLa [8], 0.7; in test [9] it was 0.4.

In the case of `Cc1cc2c(c(O)c1-c1c(C)cc3c(c1O)/C(=C/NC1CC1)C(=O)C(O)=C3C(C)C)/C(=C/NC1CC1)C(=O)C(O)=C2C(C)C` (stereo in doubt; 5a), the IC50 is 17.4 µM in test [1] (Homo sapiens, M85, 48 h); 55.9 µM with HeLa [6] (hela); over 80 µM in test [7] (u-87mg atcc). The “Ratio IC50” value in test [2] is 1.17; in the test on HeLa [3], 4.44; in test [5], 0.95; in the test with HeLa [8], 3.14.

For `Cc1cc2c(c(O)c1-c1c(C)cc3c(c1O)/C(=C/NC1CC1)C(=O)C(O)=C3C(C)C)/C(=C/NC1CC1)C(=O)C(O)=C2C(C)C` (stereo in doubt; 5b), the half-inhibitory concentration (IC50) in [1] (m85) is 17.5 µM; in the test on HeLa [6] (hela), 13.5 µM; in [7] (u-87mg atcc) it was 32.4 µM. The “Ratio IC50” value in the test with HeLa [3] amounted to 1.07; in [4], 1.89; with HeLa [8] it was 0.76; in test [9] it was 1.07.

`Cc1cc2c(c(O)c1-c1c(C)cc3c(c1O)/C(=C/Nc1ccc(Br)cc1)C(=O)C(O)=C3C(C)C)/C(=C/Nc1ccc(Br)cc1)C(=O)C(O)=C2C(C)C` (stereo in doubt; 6a): the IC50 in test [1] (Homo sapiens, M85, 48 h) is over 80 µM; with HeLa [6] (Homo sapiens, HeLa, 48 h), 73.7 µM; in [7] (Homo sapiens, U-87 MG, 48 h), over 80 µM. The “Ratio IC50” value is 5.85 in the test on HeLa [3] and 4.14 in the test on HeLa [8].

As to `Cc1cc2c(c(O)c1-c1c(C)cc3c(c1O)/C(=C/Nc1ccc(Br)cc1)C(=O)C(O)=C3C(C)C)/C(=C/Nc1ccc(Br)cc1)C(=O)C(O)=C2C(C)C` (stereo in doubt; 6b), the IC50 in test [1] (m85) came out at 78.4 µM; in the test with HeLa [6] (hela), 49.2 µM. Further, the “Ratio IC50” value was found to be 5.26 in test [2], 3.9 with HeLa [3], 4.26 in test [5] and 2.76 in the test with HeLa [8].

For `COC(=O)[C@H](Cc1ccccc1)N/C=C1\C(=O)C(O)=C(C(C)C)c2cc(C)c(-c3c(C)cc4c(c3O)/C(=C/N[C@@H](Cc3ccccc3)C(=O)OC)C(=O)C(O)=C4C(C)C)c(O)c21` (stereo in doubt; 7a), the IC50 in test [1] (Homo sapiens, M85, 48 h) was over 80 µM; with HeLa [6] (Homo sapiens, HeLa, 48 h), over 80 µM; in test [7] (Homo sapiens, U-87 MG, 48 h) it was over 80 µM.

On to `COC(=O)[C@H](Cc1ccccc1)N/C=C1\C(=O)C(O)=C(C(C)C)c2cc(C)c(-c3c(C)cc4c(c3O)/C(=C/N[C@@H](Cc3ccccc3)C(=O)OC)C(=O)C(O)=C4C(C)C)c(O)c21` (stereo in doubt; 7b), for which the IC50 in [1] (m85) was determined as 64.4 µM; in the test on HeLa [6] (hela) it was 69 µM. In addition, the “Ratio IC50” value in test [2] came to 4.32; in the test on HeLa [3], 5.48; in [5] it was 3.5; with HeLa [8] it was 3.88.

As for `COC(=O)[C@H](Cc1ccc(O)cc1)N/C=C1\C(=O)C(O)=C(C(C)C)c2cc(C)c(-c3c(C)cc4c(c3O)/C(=C/N[C@@H](Cc3ccc(O)cc3)C(=O)OC)C(=O)C(O)=C4C(C)C)c(O)c21` (stereo in doubt; 8a), the IC50 in [1] (m85) came to 52.4 µM; in the test on HeLa [6] (Homo sapiens, HeLa, 48 h) it was 21.8 µM; in test [7] (u-87mg atcc) it was 32.1 µM. The “Ratio IC50” value in test [2] is 3.52; with HeLa [3] it was 1.73; in test [4], 1.88; in [5], 2.84; in the test with HeLa [8], 1.22; in test [9], 1.06.

With `COC(=O)[C@H](Cc1ccc(O)cc1)N/C=C1\C(=O)C(O)=C(C(C)C)c2cc(C)c(-c3c(C)cc4c(c3O)/C(=C/N[C@@H](Cc3ccc(O)cc3)C(=O)OC)C(=O)C(O)=C4C(C)C)c(O)c21` (stereo in doubt; 8b), the IC50 in test [1] (m85) is 16.3 µM; in the test with HeLa [6] (hela), 11.4 µM; in test [7] (u-87mg atcc) it was 14.5 µM. In addition, the “Ratio IC50” value in test [2] is 1.09; in the test with HeLa [3] it was 0.9; in test [4], 0.85; in [5], 0.89; with HeLa [8], 0.64; in test [9] it was 0.48.

`COC(=O)[C@H](Cc1c[nH]c2ccccc12)N/C=C1\C(=O)C(O)=C(C(C)C)c2cc(C)c(-c3c(C)cc4c(c3O)/C(=C/N[C@@H](Cc3c[nH]c5ccccc35)C(=O)OC)C(=O)C(O)=C4C(C)C)c(O)c21` (stereo in doubt; 9a): the IC50 in [1] (Homo sapiens, M85, 48 h) was over 80 µM; with HeLa [6] (Homo sapiens, HeLa, 48 h) it was over 80 µM; in test [7] (Homo sapiens, U-87 MG, 48 h), over 80 µM.

As to `COC(=O)[C@H](Cc1c[nH]c2ccccc12)N/C=C1\C(=O)C(O)=C(C(C)C)c2cc(C)c(-c3c(C)cc4c(c3O)/C(=C/N[C@@H](Cc3c[nH]c5ccccc35)C(=O)OC)C(=O)C(O)=C4C(C)C)c(O)c21` (stereo in doubt; 9b), the IC50 in test [1] (m85) was determined as 52.3 µM. Moreover, the “Ratio IC50” value was found to be 3.51 in test [2] and 2.84 in test [5].

Take `Cc1cc2c(c(O)c1-c1c(C)cc3c(c1O)/C(=C/NC(C)C)C(=O)C(O)=C3C(C)C)/C(=C/NC(C)C)C(=O)C(O)=C2C(C)C` (stereo in doubt; 10a): the IC50 in test [1] (Homo sapiens, M85, 48 h) worked out at 34.2 µM; in the test with HeLa [6] (Homo sapiens, HeLa, 48 h), 23.8 µM; in [7] (Homo sapiens, U-87 MG, 48 h), 29.1 µM. Further, the “Ratio IC50” value in [2] amounted to 2.3; in the test on HeLa [3], 1.88; in test [4], 1.7; in test [5], 1.86; in the test with HeLa [8], 1.34; in test [9] it was 0.96.

Turning to `COc1c(OC)c2c3c(c(-c4c(C)cc5c(C(C)C)c(OC)c(OC)c6c5c4OC6OC)c(C)cc3c1C(C)C)OC2OC` (stereo not drawn) [(-)-GOSSYPOL HEXAMETHYL ETHER], the IC50 in [1] (Homo sapiens, M85, 48 h) was over 80 µM; in the test on HeLa [6] (Homo sapiens, HeLa, 48 h), over 80 µM; in test [7] (Homo sapiens, U-87 MG, 48 h), over 80 µM.

The record behind these values is ChEMBL document CHEMBL1154047, “Chiral gossypol derivatives: evaluation of their anticancer activity and molecular modeling” (Eur J Med Chem, 2009).
